From US4477464A, “Hetero-benzazepine derivatives and their pharmaceutical use” (Ciba-Geigy Corporation, priority 1983, dated 1984)
Counter-ions that a name gives are not always drawn.

What was measured:
[1] = biological target: T1, angiotensin-converting enzyme (Oryctolagus cuniculus, UniProt P12822); assay: in vitro inhibition of angiotensin-converting enzyme (hippuryl-histidyl-leucine substrate); format: biochemical, rabbit; settings: angiotensin-converting enzyme preparation from lungs of adult male rabbits, 37° C., 30 minutes
T1 construct: angiotensin-converting enzyme preparation (from lungs of adult male rabbits); from tissue; host or cells: lungs of adult male rabbits
T1 sequence (P12822 34-1310): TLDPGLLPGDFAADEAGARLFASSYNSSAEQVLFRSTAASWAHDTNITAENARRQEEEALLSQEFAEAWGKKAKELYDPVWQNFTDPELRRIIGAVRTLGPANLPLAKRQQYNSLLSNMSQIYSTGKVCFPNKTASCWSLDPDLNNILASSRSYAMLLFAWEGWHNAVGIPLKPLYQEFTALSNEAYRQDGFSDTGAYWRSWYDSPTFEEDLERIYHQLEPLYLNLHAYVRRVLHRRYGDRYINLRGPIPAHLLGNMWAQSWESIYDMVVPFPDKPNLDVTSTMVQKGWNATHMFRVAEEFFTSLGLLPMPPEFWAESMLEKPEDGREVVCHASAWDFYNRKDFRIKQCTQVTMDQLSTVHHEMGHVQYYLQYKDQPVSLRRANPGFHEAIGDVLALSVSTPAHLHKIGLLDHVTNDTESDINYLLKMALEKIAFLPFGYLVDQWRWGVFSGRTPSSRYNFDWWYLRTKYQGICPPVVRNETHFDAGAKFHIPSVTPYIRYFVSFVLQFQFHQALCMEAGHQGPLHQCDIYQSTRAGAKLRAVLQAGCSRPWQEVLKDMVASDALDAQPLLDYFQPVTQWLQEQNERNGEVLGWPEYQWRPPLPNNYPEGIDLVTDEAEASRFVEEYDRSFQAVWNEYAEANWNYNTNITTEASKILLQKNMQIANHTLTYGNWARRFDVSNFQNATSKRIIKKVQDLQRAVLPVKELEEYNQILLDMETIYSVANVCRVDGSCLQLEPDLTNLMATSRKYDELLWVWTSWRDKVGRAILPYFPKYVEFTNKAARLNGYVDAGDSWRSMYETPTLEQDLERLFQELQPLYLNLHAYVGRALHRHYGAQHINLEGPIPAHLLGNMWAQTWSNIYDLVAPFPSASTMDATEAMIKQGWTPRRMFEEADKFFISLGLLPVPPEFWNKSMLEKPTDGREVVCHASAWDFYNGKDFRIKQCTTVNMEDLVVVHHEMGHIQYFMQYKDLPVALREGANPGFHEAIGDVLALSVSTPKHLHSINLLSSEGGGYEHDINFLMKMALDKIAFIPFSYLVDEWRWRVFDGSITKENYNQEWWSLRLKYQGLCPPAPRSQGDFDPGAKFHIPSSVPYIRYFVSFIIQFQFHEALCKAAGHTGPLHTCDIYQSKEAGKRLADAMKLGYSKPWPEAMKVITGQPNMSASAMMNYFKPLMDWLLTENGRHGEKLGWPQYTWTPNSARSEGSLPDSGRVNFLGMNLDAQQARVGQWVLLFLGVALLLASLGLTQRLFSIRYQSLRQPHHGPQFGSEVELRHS
Procedure: Biophys. Acta 293, 451 (1973). According to this method, said compounds are dissolved at about 1 mM concentration in phosphate buffer. To 100 microliters of solutions of the test compound in phosphate buffer, diluted to the desired concentration, are added 100 microliters of 5 mM hippuryl-histidyl-leucine in phosphate buffer, followed by 50 microliters of the angiotensin-converting enzyme preparation (from lungs of adult male rabbits) in Tris buffer, containing potassium and magnesium chloride, as well as sucrose. Said solutions are incubated at 37° C. for 30 minutes and combined with 0.75 ml of 0.6N aqueous sodium hydroxide to stop further reaction. Then 100 microliters of a 0.2% solution of o-phthalaldehyde in methanol are added at room temperature, and 10 minutes later 100 microliters of 6N hydrochloric acid. These samples are read against water in a spectrophotometer set at 360 nm, and the optical densities thereof estimated. They are corrected for the standard curve via a conversion factor expressing nanomoles of histidyl-leucine formed during said 30 minute incubation period. The results are plotted against drug concentration to determine the IC50, i.e., the drug concentration which gives half the activity of the control sample containing no drug.

[2] = tested on: angiotensin-converting enzyme; assay: inhibition of Angiotensin I induced pressor response in normotensive rats; format: in vivo, rat; settings: normotensive anesthetized rats, 10 mg/kg p.o., measured 2 to 4 hours after administration
Procedure: Angiotensin I is hydrolyzed by the action of said converting enzyme to the potent pressor substance Angiotensin II. The inhibition of said enzyme prevents the generation of Angiotensin II from I and, therefore, attenuates any pressor response following an Angiotensin I challenge.
The corresponding in vivo test is performed with male, normotensive rats, which are anesthetized with sodium 5-ethyl-5-(1-methylpropyl)-2-thiobarbiturate. A femoral artery and saphenous vein are cannulated respectively for direct blood pressure measurement and the i.v. administration of Angiotensin I and a compound of this invention. After the basal blood pressure is stabilized, pressor responses to 3 challenges of 333 ng/kg angiotensin I i.v., at 5 minute intervals, are obtained. Such pressure responses are usually again obtained at time intervals after i.v. or p.o. administration of the compound to be tested, and compared with the initial responses. Any observed decrease of said pressor response is an indication of Angiotensin I converting enzyme inhibition. Illustrative of this invention, the compound of example 3a inhibits the pressor response following angiotensin I challenge by about 70% at a dose of 10 mg/kg p.o. as measured 2 to 4 hours after administration.

[3] = tested on: spontaneously hypertensive rats; assay: antihypertensive effect in spontaneously hypertensive rats, indirect systolic pressure; format: in vivo, rat; settings: 10 mg/kg p.o.
Procedure: The in vivo lowering effect on the blood pressure is recorded, either directly by means of a catheter, placed in the test animal's femoral artery, or indirectly by sphygmomanometry at the rat's tail or a transducer. The blood pressure is recorded in mm Hg prior to and after dosing.
Thus the antihypertensive effects are demonstrable in spontaneously hypertensive rats by indirect measurement of systolic pressure. Conscious rats are placed individually in restraint cages within a gently warmed chamber. A rubber pulse sensor is placed distal to an inflatable occlusive cuff on each rat's tail. The cuff is periodically inflated to occlude the tail artery, and systolic pressure is recorded as the point where the first discernible pulse emerges along the decaying calibrated pressure curve. After obtaining control values of blood pressure and heart rate, test compounds are administered orally once daily for 4 consecutive days. Additional blood pressure measurements are usually made at 2.0, 4.0 and 23.5 hours after each daily dosing, and responses are compared to those of rats dosed with the treatment vehicle.
Illustrative of the invention, the compound of example 3a at a dose of 10 mg/kg p.o. lowers blood pressure by about 35 mm Hg.

SMILES	IC50 [1]	inhibition of pressor response following angiotensin I challenge [2]	lowering of blood pressure [3]
O=C(O)CN1C(=O)[C@@H](NC(CCc2ccccc2)C(=O)O)CSc2ccccc21 (stereo partly drawn) [Example 2, (3R)-[N-(1-carboxy-3-phenylpropyl)amino]-5-carboxymethyl-2,3-dihydro-1,5-benzothiazepin-4(5H)-one]	~10 nM		
CCOC(=O)[C@H](CCc1ccccc1)N[C@H]1CSc2ccccc2N(CC(=O)O)C1=O [Example 3a, (3R)-{N-[(1S)-carboethoxy-3-phenylpropyl]amino}-5-carboxymethyl-2,3-dihydro-1,5-benzothiazepin-4(5H)-one hydrochloride]		about 70%	about 35 mm Hg
O=C(O)CN1C(=O)[C@@H](N[C@@H](CCc2ccccc2)C(=O)O)CSc2ccccc21 [Example 6, (3R)-{N-[(1S)-carboxy-3-phenylpropyl]amino}-5-carboxymethyl-2,3-dihydro-1,5-benzothiazepin-4(5H)-one]	~3 nM		
O=C(O)CN1C(=O)[C@@H](N[C@@H](CCc2ccccc2)C(=O)O)C[S+]([O-])c2ccccc21 (stereo partly drawn) [Example 12, (3R)-{N-[(1S)-carboxy-3-phenylpropyl]amino}-5-carboxymethyl-2,3-dihydro-1-oxo-1,5-benzothiazepin-4(5H)-one]	~6 nM		
NCCCCC(N[C@H]1CSc2ccccc2N(CC(=O)O)C1=O)C(=O)O (stereo partly drawn) [Example 14, (3R)-[N-(1-carboxy-5-aminopentyl)amino]-5-carboxymethyl-2,3-dihydro-1,5-benzothiazepin-4(5H)-one dihydrochloride]	~28 nM		
